Measurements published in article PMC11360041 (ACS Omega, 2024).
Entries after “also recorded” stand apart in the source; their conditions may differ.

Assays:
[1] = tested on: TMV; assay: Curative effect of compounds against TMV in vivo; details: Tobacco mosaic virus, read-out: relative inhibition rate (%) curative effect
[2] = tested on: Bipolaris maydis; type: cell-based; details: read-out: Inhibition rate, Bm
[3] = tested on: Fusarium oxysporium f. sp. cucumeris; type: cell-based; details: read-out: Inhibition rate, Fc
[4] = tested on: TMV; assay: Protective effect of compounds against TMV in vivo; set-up: species or system tobacco mosaic virus; details: for inhibition at 100 µg/mL / inhibition at 500 µg/mL: Tobacco mosaic virus, read-out: relative inhibition rate (%) protective effect
[5] = tested on: Rhizoctonia solani; type: cell-based; details: read-out: Inhibition rate, Rs
[6] = tested on: Alternaria solani; type: cell-based; details: read-out: Inhibition rate, As
[7] = tested on: TMV; assay: Inactivation effect of compounds against TMV in vivo; set-up: species or system tobacco mosaic virus; details: for inhibition at 100 µg/mL / inhibition at 500 µg/mL: Tobacco mosaic virus, read-out: relative inhibition rate (%) inactive effect
[8] = tested on: Physalospora piricola; type: cell-based; details: read-out: Inhibition rate, Pp, 50 mg/L, Physalospora piricola
[9] = tested on: Sclerotinia sclerotiorum; type: cell-based; details: read-out: Inhibition rate, Ss
[10] = tested on: Botrytis cinerea; type: cell-based; details: read-out: Inhibition rate, Bc
[11] = tested on: Phytophthora capsici; type: cell-based; details: read-out: Inhibition rate, Pc
[12] = tested on: watermelon anthracnose; assay: organism not typed; type: cell-based; details: read-out: Inhibition rate, Wa
[13] = tested on: Fusarium graminearum; assay: microbe, parasite or virus in culture; type: cell-based; details: read-out: Inhibition rate, Fg
[14] = tested on: TMV; details: cited from earlier work
[15] = tested on: TMV; details: 500 mg/L; cited from earlier work
[16] = tested on: TMV; details: 500 mg/L; cited from earlier work; remark: listed apart in the source
[17] = tested on: TMV; details: 500 mg/L; cited from earlier work; remark: listed apart in the source
[18] = target: T1, TMV coat protein (TMV-CP) (Tobacco mosaic virus, UniProt P69687); assay: Microscale thermophoresis binding to TMV-CP
T1 sequence (P69687 2-159 limits assumed): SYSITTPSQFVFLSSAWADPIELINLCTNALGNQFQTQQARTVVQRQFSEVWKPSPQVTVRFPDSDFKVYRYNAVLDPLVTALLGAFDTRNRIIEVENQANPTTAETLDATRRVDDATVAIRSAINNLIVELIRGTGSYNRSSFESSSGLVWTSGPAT

[19] = tested on: TMV particles; assay: Morphological observation of TMV particles via transmission electron microscopy; set-up: species or system tobacco mosaic virus; details: 500 mg/L
[20] = tested on: 14 kinds of phytopathogenic fungi; assay: Fungicidal activity against 14 kinds of phytopathogenic fungi; type: cell-based; details: read-out: inhibitory rate against three fungi

Row | SMILES | inhibition at 100 µg/mL [1] | inhibition at 500 µg/mL [1] | inhibition at 50 µg/mL [2] | inhibition at 50 µg/mL [3] | inhibition at 100 µg/mL [4] | inhibition at 500 µg/mL [4] | inhibition at 50 µg/mL [5] | inhibition at 50 µg/mL [6] | inhibition at 100 µg/mL [7] | inhibition at 500 µg/mL [7] | inhibition at 50 µg/mL [8] | inhibition at 50 µg/mL [9] | inhibition at 50 µg/mL [10] | inhibition at 50 µg/mL [11] | inhibition at 50 µg/mL [12] | inhibition at 50 µg/mL [13] | also measured
1 | O=C(Cn1ccc(=O)c2ccccc21)NN=Cc1ccc(-c2ccccc2)cc1 [Compound 11] | 10.1 ± 2% | 43 ± 2.7% | 11.1 ± 0.9% | 22.4 ± 1.3% | 20.9 ± 0.4% | 45.2 ± 1.1% | 35.7 ± 2.2% | 38.5 ± 2.4% | 19.8 ± 2.8% | 49.6 ± 3.9% | 17.6 ± 1.6% | 22 ± 1.4% | 25 ± 1.8% | 26.2 ± 1.5% | 14 ± 1.7% | 9.5 ± 0.7% | 
2 | CNCC(=O)N[C@@H](CO)C(=O)N[C@H]1[C@H](O)[C@@H](O)[C@H](n2ccc(N)nc2=O)O[C@@H]1C(N)=O [Ningnanmycin] |  |  |  |  |  |  |  |  |  |  |  |  |  |  |  |  | actual inhibitory effect in the field [14]: lower than 60%
3 | Cn1ccc(=O)c2ccccc21 [echinopsine] |  |  |  |  |  |  |  |  |  |  |  |  |  |  |  |  | curative activity against TMV [15]: 46.1%; inactive activity against TMV [16]: 49.5%; protective activity against TMV [17]: 42.6%
4 | NC(=O)c1ncn([C@@H]2O[C@H](CO)[C@@H](O)[C@H]2O)n1 [Ribavirin, reference compound] | 10.1 ± 1.6% | 38 ± 2.2% |  |  | 13.4 ± 0.7% | 40.8 ± 1% |  |  | 12.1 ± 1.4% | 39.2 ± 3.5% |  |  |  |  |  |  | Kd [18]: 512 ± 257 nM; effect on the morphology of TMV particles (TEM) [19]: fragmented into shorter rods
5 | COc1cccc(C=NNC(=O)Cn2ccc(=O)c3ccccc32)c1 [Compound 4] | 14 ± 0.5% | 47.6 ± 2.5% | 33.3 ± 1.4% | 36.7 ± 1.4% | 15.8 ± 2.5% | 46.3 ± 1.8% | 57.1 ± 2.3% | 61.5 ± 3.2% | 16.8 ± 0.3% | 51.2 ± 1.9% | 38.2 ± 1.7% | 36.6 ± 1.5% | 14.6 ± 0.7% | 38.1 ± 1.7% | 39.5 ± 1.1% | 38.1 ± 1.9% | inhibition at 50 µg/mL [20]: > 40%; Kd [18]: 142 ± 60 nM; effect on the morphology of TMV particles (TEM) [19]: hindered the self-assembly and growth of TMV; also recorded: fragmented into shorter rods
6 | O=C(Cn1ccc(=O)c2ccccc21)NN=Cc1ccc(C(F)(F)F)cc1 [Compound 17] | 17.7 ± 1.5% | 49.2 ± 3% | 8.9 ± 0.9% | 26.5 ± 1.7% | 19 ± 1.8% | 44.1 ± 1.4% | 3.6 ± 0.7% | 15.4 ± 1.3% | 7.5 ± 0.2% | 47.1 ± 1.9% | 47.1 ± 1.4% | 22 ± 1.3% | 18.8 ± 1.5% | 9.5 ± 0.8% | 11.6 ± 1.2% | 19 ± 1.2% | 
7 | O=C(Cn1ccc(=O)c2ccccc21)NN=Cc1cc2ccccc2[nH]1 [Compound 23] | 6.6 ± 1.9% | 32.5 ± 4.1% | 8.9 ± 1.1% | 6.1 ± 1.3% | 0% | 43.9 ± 1% | 3.6 ± 0.5% | 15.4 ± 1.5% | 0% | 40.1 ± 2.7% | 51.5 ± 2.3% | 12.2 ± 0.9% | 10.4 ± 1.2% | 31 ± 2.1% | 11.6 ± 0.9% | 14.3 ± 1.1% | relative inhibition rate (%) protective effect ([4]; 100 mg/L, in vivo, against TMV): did not exhibit any; relative inhibition rate (%) inactive effect ([7]; 100 mg/L, in vivo, against TMV): did not exhibit any
